Data reported in US11834431B2, “Crystals of cyclic amine derivative and pharmaceutical use thereof” (Toray Industries, Inc., priority 2016, dated 2023).

Tests used:
[1] = Evaluation of solubility in Japanese Pharmacopoeia test fluids; format: physicochemical; conditions: aqueous buffer, thermodynamic from solid; 2nd fluid for disintegration test of the Japanese Pharmacopoeia 16th edition (pH 6.8), 37° C., 30 minutes; read-out: Solubility (37° C.)
Protocol: Form A crystal of compound (I) (100 mg) was weighed into a borosilicate glass vial, and the 1st fluid for disintegration test/1st fluid for dissolution test of the Japanese Pharmacopoeia 16th edition (pH 1.2)(1 mL) or the 2nd fluid for disintegration test of the Japanese Pharmacopoeia 16th edition (pH 6.8)(1 mL) was added in a temperature and humidity test chamber (Amefrec Co., Ltd.; NO DOORα) adjusted to 37° C., followed by stirring. Form B crystal of ethane disulfonate of compound (I) (10 mg) was weighed into a borosilicate glass vial, and the 2nd fluid for disintegration test of the Japanese Pharmacopoeia 16th edition (pH 6.8) (0.1 mL) was added in a temperature and humidity test chamber (Amefrec Co., Ltd.; NO DOORα) adjusted to 37° C., followed by stirring. After 30 minutes, the inside of each vial was visually checked, and it was confirmed that each crystal was completely dissolved.

[2] = tested on: spinal nerve ligation model rats (neuropathic pain model rats); assay: Analgesic effect on allodynia in spinal nerve ligation model rats (von Frey, 50% response threshold); format: in vivo, rat; conditions: oral 10 mg/kg, measured 3 hours after administration, 8 days after ligation, compared to negative control group
Protocol: Analgesic effects of the crystal of compound (I) or the pharmacologically acceptable salt thereof upon neuropathic pain were evaluated using spinal nerve ligation model rats (Kim and Chung, Pain, 1992, vol. 50, p. 355). Form A crystal of compound (I) was used as a crystal of compound (I) or the pharmacologically acceptable salt thereof for evaluation.
The above model rats were prepared as follows. In experiments, 6-to 7-week-old SD male rats were used for 5 to 7 cases per group, and the lumbar skin and muscle of each rat were dissected to expose the L5 and L6 […] under inhalation anesthesia with isoflurane. After ligating the L5 and L6 spinal nerves with silk suture, the wound of each rat was sutured. Thus, a nerve ligation group was prepared. The group in which the nerve was exposed but not ligated was determined to be a sham surgery group.
Allodynia observed in spinal nerve ligation model rats was measured using a von Frey filaments according to a method described in a known publication (Chaplan et al., J. Neurosci. Methods, 1994, vol. 53, p. 55) and a 50% response threshold (g) was determined. Eight days after the ligation surgery, allodynia of the nerve ligation group was measured before oral administration of Form A crystal of compound (I). Rats with a 50% response threshold (average value of the right hind paw and the left hind paw) of 2 g to less than 6 g were considered to have developed allodynia. The rats were divided as neuropathic pain model rats into groups such that there was no significant difference in the 50% response threshold between groups. Allodynia was measured 3 hours after the oral administration of Form A crystal of compound (I), and the analgesic effect was evaluated. Pregabalin was used as a positive control.
Form A crystal of compound (I) was dissolved in water for injection (distilled water) to result in concentrations of 5, 10, and 20 mg/mL, and orally administered in a dose volume of 1 mL per kg body weight. Pregabalin was dissolved in water for injection (distilled water) to result in a concentration of 10 mg/mL and orally administered in a dose volume of 1 mL per kg of body weight. Water for injection (distilled water) was orally administered to the sham surgery group. A group in which water for injection (distilled water) was orally administered to rats in the nerve ligation group was defined as a negative control group.
The horizontal axis represents the solution to be administered in each group, namely, the nerve ligation group or sham surgery group, and the vertical axis represents the 50% response threshold (g) (mean±standard error, n=5 to 7). […]

fibromyalgia model rats = assay: Analgesic effect on allodynia in fibromyalgia model rats (von Frey, 50% response threshold); format: in vivo, rat; conditions: oral 10 mg/kg, measured 3 hours after administration, Day 7, compared to negative control group
Protocol: The analgesic effect of the crystal of compound (I) or the pharmacologically acceptable salt thereof against fibromyalgia syndrome was evaluated using fibromyalgia model rats (Sluka et al., Journal of Pharmacology and Experimental Therapeutics, 2002, vol. 302, pp. 1146-1150; Nagakura et al., Pain, 2009, vol. 146, pp. 26-33; Sluka et al., Pain, 2009, vol. 146, pp. 3-4). Form A crystal of compound (I) was used as a crystal of compound (I) or the pharmacologically acceptable salt thereof for evaluation.
The above model rats were prepared as follows. In experiments, 6-to 7-week-old SD male rats were used for 5 or 6 cases per group. 100 μL of acidic physiological saline adjusted to pH 4.0 was administered twice to the gastrocnemius muscle of the right hind paw of each rat (the day of the administration of acidic physiological saline was defined as Day 1 after the start of the experiment, and single dose administrations were carried out on Days 1 and 6 after the start of the experiment) under inhalation anesthesia with isoflurane. The thus prepared group was determined to be an acidic physiological saline group. As a control for the model, a group treated with a physiological saline instead of an acidic physiological saline was determined to be a physiological saline group.
Allodynia observed in fibromyalgia model rats was measured using a von Frey filaments according to a method described in a known publication (Chaplan et al., Journal of Neuroscience Methods, 1994, vol. 53, pp. 55-63) and a 50% response threshold (g) was determined. On Day 7 after the start of the experiment, allodynia was measured 3 hours after oral administration of Form A crystal of compound (I), and the analgesic effect was evaluated. Allodynia of the acidic physiological saline group was measured before oral administration of Form A crystal of compound (I). […] Allodynia was measured 3 hours after the oral administration of the crystal of compound (I), and the analgesic effect was evaluated. […]

[3] = Dissolution of amorphous matter in various solvents (selection of crystallization solvents); format: physicochemical
Protocol: The amorphous matter (10 mg) of compound (I) was weighed into a borosilicate glass vial, each solvent in Table 3 was added at the corresponding amount of solvent added in Table 3, and confirmed whether or not the amorphous matter was dissolved. […] Subsequently, the vial was shaken at room temperature in an airtight state for 7 days. However, no solid precipitated in either case. […] It was therefore judged that they were unsuitable as a crystallization solvent.

[4] = Evaluation of hygroscopicity (equilibrium moisture measurement); format: physicochemical; conditions: 30° C.
Protocol: Equilibrium moisture measurement was performed on Form A crystal and the amorphous matter of compound (I) under the following conditions using a fully automated symmetric vapor sorption analyzer (TA Instruments Inc.; VTI-SA+). […] The change in appearance was also observed.

[5] = Evaluation of storage stability, Form A crystal versus amorphous matter (HPLC purity); format: physicochemical; conditions: airtight state
[6] = 40° C., relative humidity 75%, 8 weeks

CN(C)C1CCN(C(=O)C[C@H](O)c2nccn2C)CC1 [Form B crystal of ethane disulfonate, (S)-1-(4-(dimethylamino)piperidin-1-yl)-3-hydroxy-3-(1-methyl-1H-imidazol-2-yl)propan-1-one]
solubility at 30 min [1]: > 100 mg/mL

CC(C)C[C@H](CN)CC(=O)O [pregabalin, reference compound]
improvement of allodynia (50% response threshold) [2]: significant improvement
improvement of allodynia (50% response threshold) (fibromyalgia model rats): significant improvement

CN(C)C1CCN(C(=O)C[C@H](O)c2nccn2C)CC1 [Amorphous matter, (S)-1-(4-(dimethylamino)piperidin-1-yl)-3-hydroxy-3-(1-methyl-1H-imidazol-2-yl)propan-1-one]
Appearance of solution ([3]; 1-Butanol, 0.02 mL added, 500 mg/mL): Soluble
Appearance of solution ([3]; 1-Propanol, 0.02 mL added, 500 mg/mL): Soluble
Appearance of solution ([3]; 2-Butanone, 0.02 mL added, 500 mg/mL): Soluble
Appearance of solution ([3]; 2-Propanol, 0.005 mL added, 2000 mg/mL): Soluble
Appearance of solution ([3]; 2-Propanol, 0.02 mL added, 500 mg/mL): Soluble
Appearance of solution ([3]; 4-Methyl-2-pentanone, 0.02 mL added, 500 mg/mL): Soluble
Appearance of solution ([3]; Acetone, 0.01 mL added, 1000 mg/mL): Soluble
Appearance of solution ([3]; Acetone, 0.02 mL added, 500 mg/mL): Soluble
Appearance of solution ([3]; Acetonitrile, 0.005 mL added, 2000 mg/mL): Soluble
Appearance of solution ([3]; Acetonitrile, 0.02 mL added, 500 mg/mL): Soluble
Appearance of solution ([3]; Chlorobenzene, 0.02 mL added, 500 mg/mL): Soluble
Appearance of solution ([3]; Chloroform, 0.005 mL added, 2000 mg/mL): Soluble
Appearance of solution ([3]; Chloroform, 0.02 mL added, 500 mg/mL): Soluble
Appearance of solution ([3]; Cyclohexane, 0.02 mL added, 500 mg/mL): Insoluble
Appearance of solution ([3]; Cyclohexane, 3 mL added, 3 mg/mL): not dissolved at all
Appearance of solution ([3]; Cyclohexane, 3 mL added, 3 mg/mL, listed as amorphous matter of compound (I)): Insoluble
Appearance of solution ([3]; Ethanol, 0.02 mL added, 500 mg/mL): Soluble
Appearance of solution ([3]; Ethyl acetate, 0.005 mL added, 2000 mg/mL): Soluble
Appearance of solution ([3]; Ethyl acetate, 0.01 mL added, 1000 mg/mL): Soluble
Appearance of solution ([3]; Ethyl acetate, 0.02 mL added, 500 mg/mL): Soluble
Appearance of solution ([3]; Ethyl formate, 0.02 mL added, 500 mg/mL): Soluble
Appearance of solution ([3]; Heptane, 0.02 mL added, 500 mg/mL): Insoluble
Appearance of solution ([3]; Heptane, 3 mL added, 3 mg/mL): not dissolved at all
Appearance of solution ([3]; Heptane, 3 mL added, 3 mg/mL, listed as amorphous matter of compound (I)): Insoluble
Appearance of solution ([3]; Isobutyl acetate, 0.02 mL added, 500 mg/mL): Soluble
Appearance of solution ([3]; Isopropyl acetate, 0.02 mL added, 500 mg/mL): Soluble
Appearance of solution ([3]; Methanol, 0.005 mL added, 2000 mg/mL): Soluble
Appearance of solution ([3]; Methanol, 0.02 mL added, 500 mg/mL): Soluble
Appearance of solution ([3]; Methyl acetate, 0.02 mL added, 500 mg/mL): Soluble
Appearance of solution ([3]; Tetrahydrofuran, 0.01 mL added, 1000 mg/mL): Soluble
Appearance of solution ([3]; Tetrahydrofuran, 0.02 mL added, 500 mg/mL): Soluble
Appearance of solution ([3]; Toluene, 0.005 mL added, 2000 mg/mL): Soluble
Appearance of solution ([3]; Toluene, 0.02 mL added, 500 mg/mL): Soluble
Appearance of solution ([3]; Water, 0.02 mL added, 500 mg/mL): Soluble
concentration at which completely dissolved ([3]; each solvent in Table 3 (text summary; cyclohexane and heptane excepted)): ≥ 500 mg/mL
relative humidity at which the substance deliquesced [4]: less than 5%
Change in appearance ([4]; humidification, listed as amorphous matter): turned into oil matter
Chemical purity, After storage [5, 6]: 97.2%
Decomposition product increased by not less than 0.15% after storage [5, 6]: 4 different
Optical purity, After storage [5, 6]: 98.7 % ee
Chemical purity, After storage ([5]; 60° C., 4 weeks): 91.5%
Decomposition product increased by not less than 0.15% after storage ([5]; 60° C., 4 weeks): 7 different
Optical purity, After storage ([5]; 60° C., 4 weeks): 98.9 % ee
